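96-well plates; 48 h exposure; 5 concentrations. Endpoints by linear interpolation between flanking doses. Not reached: highest tested concentration assigned. At the TGI there is no net growth.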 A value given as a limit tells only on which side of the number the result lay.

Some test systems named below: M14 melanoma; A498 renal; UACC-257 melanoma; SR leukemia; SK-MEL-2 melanoma; ACHN renal; TK-10 renal.
Holding throughout (assay): NCI tumour cell line growth inhibition, 48 h

Take `O=C1c2cccnc2-c2nccc3c2c1nc1ccc(Br)cc13`: the TGI in the test on M14 melanoma came to 0.0773 µM; with A498 renal, 0.223 µM; in the test with UACC-257 melanoma, 0.169 µM; in the test on SR leukemia, 0.0372 µM; in the test on SK-MEL-2 melanoma it was 0.306 µM; with ACHN renal, 0.0957 µM. Further, the TGI in the test with TK-10 renal came to 0.749 µM.
In the case of `O=c1c2cc(I)ccc2nc(SCc2nnco2)n1Cc1ccccc1`, the TGI with M14 melanoma, in the test with A498 renal, in the test with UACC-257 melanoma, with SR leukemia, in the test on SK-MEL-2 melanoma and in the test on ACHN renal was > 100 µM in each case. In addition, the TGI in the test on TK-10 renal is > 100 µM.
`O=C1c2cc3c(cc2CC1Cc1ccc2c(c1)CCC2)CCC3` (centres undefined): the TGI with M14 melanoma was > 100 µM; with A498 renal, > 100 µM; in the test on UACC-257 melanoma, > 100 µM; in the test on SR leukemia it was 95.1 µM; in the test with SK-MEL-2 melanoma it was > 100 µM; with ACHN renal it was > 100 µM. Also, in the test with TK-10 renal, the TGI was > 100 µM.
`CC1(C)CN=CC(C)(OCc2ccccc2)C(=O)NC(C)(C)CN=CC(C)(OCc2ccccc2)C(=O)N1` (centres undefined): the TGI with M14 melanoma, in the test on A498 renal, in the test on UACC-257 melanoma, in the test on SR leukemia, with SK-MEL-2 melanoma and in the test on ACHN renal was > 10 µM each time. For the same compound, the TGI in the test on TK-10 renal is > 10 µM.
For the compound `CC1C(C#N)(C#N)C(C#N)=C(N)C1(C)[N+](=O)[O-]` (centres undefined), the TGI with M14 melanoma, with A498 renal, in the test with UACC-257 melanoma, with SR leukemia, with SK-MEL-2 melanoma and with ACHN renal was > 100 µM each time. For the same compound, the TGI in the test on TK-10 renal was > 100 µM.
In the case of `CCN(CC)C1Oc2cc3c(cc2C(c2cccc(OC)c2O)C1C)OCO3` (centres undefined), the TGI in the test with M14 melanoma is 12.6 µM; in the test with A498 renal it was 7.24 µM; with UACC-257 melanoma, > 50.4 µM; in the test with SR leukemia, 25.3 µM; with SK-MEL-2 melanoma, 27.4 µM; in the test on ACHN renal it was 40.4 µM. Besides, the TGI in the test on TK-10 renal was > 100 µM.
With `C[N+](C)(C)CC(=O)N/N=C(/Cc1nc2ccc([N+](=O)[O-])cc2[nH]c1=O)C(=O)Nc1cc(C(F)(F)F)ccc1Cl`, the TGI in the test on M14 melanoma, in the test on A498 renal, in the test on UACC-257 melanoma, in the test on SR leukemia, in the test with SK-MEL-2 melanoma and in the test with ACHN renal was > 100 µM throughout. In addition, in the test with TK-10 renal, the TGI was > 100 µM.
On to `O=C(CC(c1ccccc1)C(C(=O)c1ccncc1)C(CC(=O)c1ccncc1)c1ccccc1)c1ccncc1` (centres undefined), for which the TGI with M14 melanoma, in the test on A498 renal, in the test with UACC-257 melanoma, in the test on SR leukemia, with SK-MEL-2 melanoma and in the test on ACHN renal was > 100 µM each time. In the test with TK-10 renal, the TGI was > 100 µM.
With `CC(C)=CCC[C@@H](C)C1=CC(=O)C(C)=C(O)C1=O`, the TGI in the test with M14 melanoma was determined as 17.4 µM; in the test on A498 renal, 34.9 µM; with UACC-257 melanoma, 25.5 µM; with SR leukemia it was 5.98 µM; in the test with SK-MEL-2 melanoma, 26.3 µM; with ACHN renal, 10.8 µM. In the test with TK-10 renal, the TGI came out at 15.7 µM.
Turning to `OCC1OC(c2ccccc2)CC1O` (centres undefined), the TGI in the test with M14 melanoma, in the test on A498 renal, in the test on UACC-257 melanoma, in the test with SR leukemia, in the test with SK-MEL-2 melanoma and with ACHN renal was > 100 µM throughout. Moreover, the TGI with TK-10 renal is > 100 µM.
In the case of `O=C(Nc1ccc(Sc2ccc(N=Nc3c(O)c(S(=O)(=O)O)cc4cc(S(=O)(=O)O)ccc34)cc2)cc1)c1ccc(N=Nc2c(O)c(S(=O)(=O)O)cc3cc(S(=O)(=O)O)ccc23)cc1`, the TGI in the test on M14 melanoma is 91.8 µM; in the test on A498 renal, > 100 µM; with UACC-257 melanoma, > 100 µM; with SR leukemia, 54 µM; with SK-MEL-2 melanoma, 96.8 µM; in the test on ACHN renal, > 100 µM. Further, in the test on TK-10 renal, the TGI was > 100 µM.
Turning to `CS(=O)(=O)OCC1CCCCCCCCCCC12SCCCS2` (centres undefined), the TGI in the test on M14 melanoma, in the test with A498 renal, with UACC-257 melanoma, in the test on SR leukemia, in the test with SK-MEL-2 melanoma and in the test on ACHN renal was > 100 µM each time. Moreover, the TGI in the test with TK-10 renal was > 100 µM.
As for `CO[C@]12CC(=O)C3(C(C[C@H]4CC5CC[C@H]6C[C@@H](OC(C)=O)CC[C@]6(OC(C)=O)C5C[C@@]43C)C1)C1C[C@H]3[C@@H]4CC[C@H]5C[C@@H](OC(C)=O)CC[C@]5(OC(C)=O)[C@H]4CC[C@]3(C)C12` (some centres undefined), the TGI with M14 melanoma, in the test on A498 renal, in the test with UACC-257 melanoma, in the test on SR leukemia, with SK-MEL-2 melanoma and with ACHN renal was > 100 µM each time. Besides, the TGI in the test on TK-10 renal was > 100 µM.
For the compound `CCN(CC)c1ccc2cc(C(N)=O)c(=Nc3ccc(F)cc3)oc2c1`, the TGI in the test with M14 melanoma, in the test with A498 renal, in the test with UACC-257 melanoma, with SR leukemia, in the test on SK-MEL-2 melanoma and in the test with ACHN renal was > 100 µM in each case. This compound also yielded a TGI in the test with TK-10 renal of 44.7 µM.
As to `COC12C=CC(CC1)C(C)(C)C2OS(C)(=O)=O` (centres undefined), the TGI in the test on M14 melanoma, in the test on A498 renal, in the test with UACC-257 melanoma, in the test with SR leukemia, in the test on SK-MEL-2 melanoma and in the test on ACHN renal was > 100 µM each time. Also, the TGI with TK-10 renal was > 100 µM.
`CC(=O)OCC1OC(n2c(N)c(C#N)c(-c3cccc(Cl)c3)c(C#N)c2=S)C(OC(C)=O)C(OC(C)=O)C1OC(C)=O` (centres undefined): the TGI with M14 melanoma is 57.1 µM; in the test on A498 renal it was 45.5 µM; with UACC-257 melanoma it was 65 µM; in the test on SR leukemia, 42.8 µM; in the test with SK-MEL-2 melanoma, 45.2 µM; in the test with ACHN renal, > 100 µM. The compound also had a TGI in the test on TK-10 renal of 54.2 µM.
For the compound `COc1cc(S(=O)(=O)Nc2ccc(-c3csc(N4C(=O)C(C)SC4c4ccccc4)n3)cc2)ccc1Cl` (centres undefined), the TGI was > 100 µM with M14 melanoma; > 100 µM in the test on A498 renal; > 100 µM in the test on UACC-257 melanoma; > 100 µM in the test with SR leukemia; 21.5 µM in the test with SK-MEL-2 melanoma; > 100 µM with ACHN renal.
Take `Cc1cc2oc3c(ccc(=O)n3C)c(=O)c2c(C)c1Cl`: the TGI in the test on M14 melanoma was 81.8 µM; in the test on A498 renal, > 100 µM; in the test on SR leukemia, > 100 µM; in the test with SK-MEL-2 melanoma, > 100 µM; in the test with ACHN renal, > 100 µM; in the test on TK-10 renal it was > 100 µM.

The values are drawn from PubChem BioAssay (NCI).
